Assay results as given in patent US8399481B2, “Compounds” (Xention Ltd, priority 2009, dated 2013).
No end group written: not given here.

Assays:
hKv1.3 = hKv1.3 (Homo sapiens, UniProt P22001); assay: hKv1.3 % inhibition at 1 uM (Table 1); format: cell-based; details: for inhibition at 1 µM: read-out: hKv1.3 % inh. 1 uM
hKv1.5 = hKv1.5 (Homo sapiens, UniProt P22460); assay: hKv1.5 % inhibition at 300 nM (Table 1); format: cell-based; details: for inhibition at 0.3 µM: read-out: hKv1.5 % inh. 300 nM
[1] = tested on: delayed-type hypersensitivity (DTH) response; details: DTH model in vivo; cited from earlier work

Sequence of hKv1.3 (P22001 whole entry): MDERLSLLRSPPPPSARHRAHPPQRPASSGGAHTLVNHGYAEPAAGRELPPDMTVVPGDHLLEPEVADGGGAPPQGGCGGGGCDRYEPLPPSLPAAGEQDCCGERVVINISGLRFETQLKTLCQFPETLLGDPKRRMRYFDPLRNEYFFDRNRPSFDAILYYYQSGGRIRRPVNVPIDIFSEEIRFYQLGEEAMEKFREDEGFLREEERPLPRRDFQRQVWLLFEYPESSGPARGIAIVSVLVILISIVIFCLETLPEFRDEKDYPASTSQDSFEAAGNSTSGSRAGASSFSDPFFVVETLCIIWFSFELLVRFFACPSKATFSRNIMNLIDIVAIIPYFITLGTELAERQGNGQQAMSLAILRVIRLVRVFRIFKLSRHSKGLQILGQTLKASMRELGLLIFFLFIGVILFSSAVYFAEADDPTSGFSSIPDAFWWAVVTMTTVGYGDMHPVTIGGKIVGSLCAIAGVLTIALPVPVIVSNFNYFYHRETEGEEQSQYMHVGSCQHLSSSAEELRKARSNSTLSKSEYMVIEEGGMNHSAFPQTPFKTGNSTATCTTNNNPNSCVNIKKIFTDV
Sequence of hKv1.5 (P22460 whole entry): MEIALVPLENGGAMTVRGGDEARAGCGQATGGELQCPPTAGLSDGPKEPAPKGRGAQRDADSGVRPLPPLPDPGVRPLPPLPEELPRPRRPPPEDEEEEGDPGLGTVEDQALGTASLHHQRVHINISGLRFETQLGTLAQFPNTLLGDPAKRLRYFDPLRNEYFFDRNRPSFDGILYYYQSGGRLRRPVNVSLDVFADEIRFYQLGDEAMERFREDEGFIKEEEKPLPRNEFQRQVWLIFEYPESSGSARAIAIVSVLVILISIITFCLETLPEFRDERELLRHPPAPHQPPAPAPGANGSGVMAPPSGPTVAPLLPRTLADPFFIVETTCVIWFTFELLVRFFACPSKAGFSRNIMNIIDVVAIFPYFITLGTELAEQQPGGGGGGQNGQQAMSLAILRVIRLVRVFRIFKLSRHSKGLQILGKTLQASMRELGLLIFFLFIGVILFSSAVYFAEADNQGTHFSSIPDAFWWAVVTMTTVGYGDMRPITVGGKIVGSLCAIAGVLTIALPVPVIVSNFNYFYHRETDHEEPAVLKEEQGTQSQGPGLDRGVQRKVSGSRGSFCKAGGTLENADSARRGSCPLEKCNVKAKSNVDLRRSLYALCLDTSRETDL

inhibition at 1 µM (hKv1.3) | inhibition at 0.3 µM (hKv1.5) | Compound | hKv1.3 % inh. 1 uM (hKv1.3) | hKv1.5 % inh. 300 nM (hKv1.5) | suppression of DTH response [1]
– | – | 1-Methyl-1H-imidazole-4-sulfonic acid (4-chloro-benzyl)-(2-ethyl-1-oxo-2,3-dihydro-1H-isoindol-4-yl)-amide [Example 21] | 69.8% | 23.8% | –
– | – | C=C1C[C@@]2(O)[C@@H]3CC[C@@]4(C)[C@@H]5C=CC(=O)OC[C@]5(C(C)OC(C)=O)[C@@H](OC(C)=O)[C@@H](OC(C)=O)[C@@H]4[C@@]3(C)[C@H](OC(C)=O)[C@H](OC(C)=O)[C@@]2(C)C2(C(=O)OC)O[C@H]12 (stereo partly shown) [Correolide] | – | – | effective
99.6% | 82.4% | CCN1CCc2ccc(N(Cc3ccc(Cl)cc3)S(=O)(=O)c3ccn(C)n3)cc2C1=O [Example 1, 1-Methyl-1H-pyrazole-3-sulfonic acid (4-chloro-benzyl)-(2-ethyl-1-oxo-1,2,3,4-tetrahydro-isoquinolin-7-yl)-amide] | – | – | –
– | – | CCN1Cc2ccc(N(Cc3ccc(Cl)cc3)S(=O)(=O)c3cccnc3)cc2C1=O [Example 2, Pyridine-3-sulfonic acid (40chloro-benzyl)-(2-ethyl-3-oxo-2,3-dihydro-1H-isoindol-5-yl)-amide] | 97.2% | 65.0% | –
96.4% | 76% | O=C1c2cc(N(Cc3ccc(Cl)cc3)S(=O)(=O)c3cccnc3)ccc2CCN1CCO [Example 5, Pyridine-3-sulfonic acid (4-chloro-benzyl)-[2-(2-hydroxy-ethyl)-1-oxo-1,2,3,4-tetrahydro-isoquinolin-7-yl]-amide] | – | – | –
96.1% | 70.1% | CCN1CC(C)(C)c2ccc(N(Cc3ccc(Cl)cc3)S(=O)(=O)c3cn(C)cn3)cc2C1=O [Example 6, 1-Methyl-1H-imidazole-4-sulfonic acid (4-chloro-benzyl)-(2-ethyl-4,4-dimethyl-1-oxo-1,2,3,4-tetrahydro-isoquinolin-7-yl)-amide] | – | – | –
95.5% | 42.6% | Cn1ccc(S(=O)(=O)N(Cc2ccc(Cl)cc2)c2ccc3c(c2)C(=O)NCC3)n1 [Example 7, 1-Methyl-1H-pyrazole-3-sulfonic acid (4-chloro-benzyl)-(1-oxo-1,2,3,4-tetrahydro-isoquinolin-7-yl)-amide] | – | – | –
94.6% | 91.2% | N#Cc1cccc(S(=O)(=O)N(Cc2ccc(Cl)cc2)c2ccc3c(c2)C(=O)NCC3)c1 [Example 8, N-(4-Chloro-benzyl)-3-cyano-N-(1-oxo-1,2,3,4-tetrahydro-isoquinolin-7-yl)-benzenesulfonamide] | – | – | –
94.5% | 76.4% | CN1CCc2ccc(N(Cc3ccc(Cl)cc3)S(=O)(=O)c3ccn(C)n3)cc2C1=O [Example 9, 1-Methyl-1H-pyrazole-3-sulfonic acid (4-chloro-benzyl)-(2-methyl-1-oxo-1,2,3,4-tetrahydro-isoquinolin-7-yl)-amide] | – | – | –
94.2% | 47.1% | Cn1ccc(S(=O)(=O)N(Cc2ccc(Cl)cc2)c2ccc3c(c2)C(=O)N(CCO)CC3)n1 [Example 10, 1-Methyl-1H-pyrazole-3-sulfonic acid (4-chloro-benzyl)-[2-(2-hydroxy-ethyl)-1-oxo-1,2,3,4-tetrahydro-isoquinolin-7-yl]-amide] | – | – | –
– | – | CCN1Cc2ccc(N(Cc3ccc(Cl)cc3)S(=O)(=O)c3cccc(C#N)c3)cc2C1=O [Example 11, N-(4-Chloro-benzyl)-3-cyano-n-(2-ethyl-3-oxo-2,3-dihydro-1H-isoindol-5-yl)-benzene sulfonamide] | 93.8% | 86.9% | –
– | – | CCN1Cc2cc(N(Cc3ccc(Cl)cc3)S(=O)(=O)c3cccc(C#N)c3)ccc2C1=O [Example 12, N-(4-Chloro-benzyl)-3-cyano-N-(2-ethyl-1-oxo-2,3-dihydro-1H-isoindol-5-yl) benzene sulfonamide] | 93.0% | 63.2% | –
90.5% | 36% | O=C1NCCc2ccc(N(Cc3ccc(Cl)cc3)S(=O)(=O)c3cccnc3)cc21 [Example 13, Pyridine-3-sulfonic acid (4-chloro-benzyl)-(1-oxo-1,2,3,4-tetrahydro-isoquinolin-7-yl)-amide] | – | – | –
89.7% | 27.1% | CCN1Cc2ccc(N(Cc3ccc(Cl)cc3)S(=O)(=O)c3cn(C)cn3)cc2C1=O [Example 14, 1-Methyl-1H-imidazole-4-sulfonic acid (4-chloro-benzyl)-(2-ethyl-3-oxo-2,3-dihydro-1H-isoindol-5-yl)-amide] | – | – | –
– | – | CC1(C)CNC(=O)c2cc(N(Cc3ccc(Cl)cc3)S(=O)(=O)c3cccnc3)ccc21 [Example 15] | 88.9% | 70.0% | –
88.3% | 64.2% | Cn1ccc(S(=O)(=O)N(Cc2ccc(Cl)cc2)c2ccc3c(c2)C(=O)NCC3(C)C)n1 [Example 16, 1-Methyl-1H-pyrazole-3-sulfonic acid (4-chloro-benzyl)-(4,4-dimethyl-1-oxo-1,2,3,4-tetrahydro-isoquinolin-7-yl)-amide] | – | – | –
– | – | CC(C)N1C(=O)c2ccc(N(Cc3ccc(Cl)cc3)S(=O)(=O)c3cn(C)cn3)cc2C1=O [Example 17, 1-Methyl-1H-imidazole-4-sulfonic acid (4-chloro-benzyl)-(2-isopropyl-1,3-dioxo-2,3-dihydro-1-H-isoindol-5-yl)-amide] | 79.7% | 58.0% | –
75.2% | 77.3% | CCN1Cc2cc(N(Cc3ccc(Cl)cc3)S(=O)(=O)c3ccn(C)n3)ccc2C1=O [Example 18, 1-Methyl-1H-pyrazole-3-sulfonic acid (4-chloro-benzyl)-(2-ethyl-1-oxo-2,3-dihydro-1H-isoindol-5-yl)-amide] | – | – | –
– | – | CCN1CCc2cc(N(Cc3ccccc3)S(=O)(=O)c3ccn(C)n3)ccc2C1=O [Example 19, 1-Methyl-1H-pyrazole-3-sulfonic acid benzyl (2-ethyl-1-oxo-1,2,3,4-tetrahydro-isoquinolin-6-yl)-amide] | 74.3% | 25.4% | –
72.6% | 34.1% | Cn1cnc(S(=O)(=O)N(Cc2ccc(Cl)cc2)c2ccc3c(c2)C(=O)NCC3(C)C)c1 [Example 20, 1-Methyl-1H-imidazole-4-sulfonic acid (4-chloro-benzyl)-(4,4-dimethyl-1-oxo-1,2,3,4-tetrahydro-isoquinolin-7-yl)-amide] | – | – | –
67.9% | 30.6% | CCN1Cc2cc(N(Cc3ccc(Cl)cc3)S(=O)(=O)c3cn(C)cn3)ccc2C1=O [Example 22, 1-Methyl-1H-imidazole-4-sulfonic acid (4-chloro-benzyl)-(2-ethyl-1-oxo-2,3-dihydro-1H-isoindol-5-yl)-amide] | – | – | –
58% | 26.5% | CCN1CCc2cc(N(Cc3ccccc3)S(=O)(=O)c3cn(C)cn3)ccc2C1=O [Example 23, 1-Methyl-1H-imidazole-4-sulfonic acid benzyl-(2-ethyl-1-oxo-1,2,3,4-tetrahydro-isoquinolin-6-yl)-amide] | – | – | –
– | – | O=c1ccc2c(OCCCCOc3ccccc3)c3ccoc3cc2o1 [PAP-1] | – | – | effective
– | – | N-(4-Chloro-benzyl)-3-cyano-N-(1-oxo-1,2,3,4-tetrahydro-isoquinolin-7-yl)-benzenesulfonamide [Example 3] | 97.2% | 87.8% | –
– | – | margatoxin (TIINVKCTSPKQCLPPCKAQFGQSAGAKCMNGKCKCYPH; ends and bridges not checked; cysteine pairing not given here; UniProt P40755 1-39, looked up) [MgTX] | – | – | effectively suppressed

Compound | inhibition at 1 µM (hKv1.3) | inhibition at 0.3 µM (hKv1.5) | hKv1.3 % inh. 1 uM (hKv1.3) | hKv1.5 % inh. 300 nM (hKv1.5) | suppression of DTH response [1]
CCN1Cc2ccc(N(Cc3ccc(Cl)cc3)S(=O)(=O)c3ccn(C)n3)cc2C1=O [Example 4, 1-Methyl-1H-pyrazole-3-sulfonic acid (4-chloro-benzyl)-(2-ethyl-3-oxo-2,3-dihydro-1H-isoindol-5-yl)-amide] | 96.6% | 63.8% | – | – | –
